Measurements taken from patent US20250314638A1, “OBLIQUE LINE SCANNER SYSTEMS AND METHODS FOR HIGH THROUGHPUT SINGLE MOLECULE TRACKING IN LIVING CELLS” (EIKON THERAPEUTICS, INC., priority 2022, published 2025).

Test system: Halo-PCNA U2OS cells
Assay: Cell cycle block validated by machine-learning cell cycle phase assignment in Halo-PCNA cells
Format: cell-based
Settings: 2 mM Thymidine (S-phase block) or (G2-M block)
Description: Time-lapse microscopy was conducted on Halo-PCNA labeled with 50 nM JFX650, to achieve near-saturating labeling, for 12 hours at 12 frames per hour (FIG. 21A). A machine learning model was then trained using both manually assigned cell stages and time-based progression resulting in both a G1, early S, mid S, late S, G2 and mitosis classifier as well as a regression prediction across the continuum of the cell cycle (FIG. 21B). The predicted cell cycle classification performed well as compared to manual annotation (FIG. 21C). Clear progression of individual cells through the cell cycle was observed when regression prediction was plotted across the time series (FIG. 21D). […] When cells in each cell phase were analyzed separately, it became apparent that the slow-moving population of PCNA was exclusively found in cell predicted to be in S-phase and that there was a marked decrease in the fast-moving population (FIG. 20E). Mean diffusion coefficient of PCNA was then measured for 4,081 individual cells to characterize heterogeneity across the cell population, which is described in large part by cell cycle (FIG. 20F).
Cell cycle as provided above can be automatically determined using an image (e.g., an image of JF549-labeled PCNA). […]

Row | Compound | fraction of cells assigned to cell cycle phases
1 | Cc1cn([C@H]2C[C@H](O)[C@@H](CO)O2)c(=O)[nH]c1=O [thymidine] | expected enrichment in the fraction of cells assigned to the respective cell phases
2 | O=C1NC(=NCc2cccs2)S/C1=C\c1ccc2ncccc2c1 [RO-3306] | expected enrichment in the fraction of cells assigned to the respective cell phases
